Patent US20030099983A1, “Cyclic and substituted immobilized molecular synthesis” (Affymetrix, Inc., priority 1991, published 2003)

System: monoclonal antibody D32.39
Conditions: normalized 0 to 100% after background subtraction
Description: Non-specific protein binding to the surface was blocked with 1% BSA/PBS/0.05% Tween 20. The array was incubated with the D32.39 antibody at a concentration of 10 μg/ml for 2 hours, followed by reaction with 10 μg/ml of FITC conjugated anti-mounse antibody (Sigma) for 2 hours at 20° C. Following extensive washing with buffer, the array was scanned in a confocal fluorescence microscope with 488 nm excitation from an argon ion laser (Spectra-Physics). […] The replicates were averaged, and the data sorted according to desired sequences.

Substance | relative intensity (normalized fluorescence signal)
FLRRQFKVVT | about 100%

Same assay, conditions: relative fluorescence intensity of the corresponding surface-immobilized peptide (N-acetylated, C-terminal amide link to surface)

Substance | Normalized Intensity (%)
Ac-FLRRQFKVVT-OH | 98
Ac-QFKVVT-OH [Ac-QFKVVT-OH] | 28
Ac-RQFKVVT-OH [Ac-RQFKVVT-OH] | 99
Ac-RRQFKVVT-OH | 99

Same assay, conditions: truncated dynorphin peptides, surface-immobilized, N-acetylated, linked via C-terminal amide; D32.39 10 μg/ml 2 hours; ± SD of min. four replicates; […]

Substance | Normalized Intensity (%)
FKVV | 10 ± 2
FKVVT | 13 ± 4
FLRR | 6 ± 3
FLRRQ | 8 ± 3
FLRRQF | 8 ± 3
FLRRQFK | 10 ± 3
FLRRQFKV | 14 ± 3
FLRRQFKVV | 37 ± 15
FLRRQFKVVT | 98 ± 1
KVVT | 11 ± 2
LRRQ | 10 ± 4
LRRQF | 10 ± 4
LRRQFK | 12 ± 3
LRRQFKV | 16 ± 3
LRRQFKVV | 44 ± 12
LRRQFKVVT | 87 ± 13
QFKV | 11 ± 2
QFKVV | 17 ± 2
QFKVVT | 28 ± 3
RQFK | 13 ± 5
RQFKV | 16 ± 4
RQFKVV | 54 ± 11
RQFKVVT | 99 ± 1
RRQF | 11 ± 5
RRQFK | 12 ± 3
RRQFKV | 16 ± 3
RRQFKVV | 58 ± 10
RRQFKVVT | 99 ± 1
